Data reported in patent US11999699B2, “Substituted pyrazole amides” (GRUENENTHAL GMBH, priority 2021, dated 2024).
pIC50: −log10 of the molar value.

Target: T1, human NaV1.8 (Homo sapiens, UniProt Q9Y5Y9)
T1 construct: The following NaV1.8 recombinant cell line was used for recordings: HEK-NaV1.8 (NM 006514.1); expressed in transfected cells; host or cells: HEK (recombinant cell line HEK-NaV1.8)
Assay: Electrophysiology: automated whole-cell voltage-clamp (patch clamp, Qube384) recordings of sodium currents in HEK-NaV1.8 cells
Type: cell-based
Details: potency data either taken from inactivated or resting state, read-out: Potency category (human NaV1.8 IC50)
Experimental: Electrophysiology: Voltage-Clamp Recordings
The following NaV1.8 recombinant cell line was used for recordings: HEK-NaV1.8 (NM 006514.1) with in (NM 018400.3).
Sodium currents were measured using the patch clamp technique in the whole-cell configuration using the Qube384 (Sophion A/S, Copenhagen, Denmark) automated voltage clamp platform. “Multi hole” plates were used for the cell line expressing NaV1.8 while “single hole” plates were used for the recombinant cell lines expressing the other subtypes. Appropriate filters (for minimum seal resistance and minimum current size) and series resistance compensation (for high quality sodium channel recordings) were applied. Data was collected at ambient room temperature.
The recording extracellular solution contained (in mM): NaCl 145 mM, KCl 4 mM, CaCl2 2 mM, MgCl2 1 mM, HEPES 10 mM, Glucose 10 mM, pH 7.4 (NaOH). The intracellular recording solution contained (in mM): CsF 120 mM, CsCl 20 mM, NaCl 10 mM, EGTA 10 mM, HEPES 10 mM, pH 7.2 (CsOH). Currents were recorded at 25 kHz sampling frequency and filtered at 5 kHz. Series resistance compensation was applied at 65%.
Vehicle (VEH) is the control condition where cells are exposed to 0.3% DMSO without compound. All runs include VEH controls being exposed to the same voltage protocols to assess non-compound related phenomena such as run down and then used to isolate compound dependent effects on currents.
To check for state-dependence inhibition, the following voltage-sequence was applied every 20 seconds:
From a resting membrane potential of −120 mV, the first test pulse (P1; 20 ms to −10 mV) was applied to check for channels in the Resting State followed by a brief recovery (20 ms to −120 mV), then holding the membrane voltage to V112 (4 seconds at voltage to obtain half the channel at Rest and half Inactivated) with a subsequent second test pulse (P2; 20 ms to −10 mV) to check for channels in the Inactivated State, followed by another brief recovery (20 ms to −120 mV) and a final third test pulse (P3; 20 ms to −10 mV) to check for recovered channels.
To check for frequency-dependent inhibition, a 10 Hz protocol and a 20 Hz protocol were applied; namely,
From a resting membrane potential of −120 mV, 40-pulses (10 ms to −10 mV) was applied at 10 Hz (at 100 ms between pulses) and then at 20 Hz (at 50 ms between pulses).
Each parameter was recorded (P1, P2, P3, P40 from 10 Hz and P40 from 20 Hz) during a control period (lasting 5 minutes) when establishing the baseline and during compound period (lasting ˜12 minutes) when test compound (or vehicle) was applied. For each parameter, the value at the end of the compound period was normalized to the vehicle baseline; as follows
To adjust for any variance in the Na^+ current signal during the compound period (owing to cumulative inactivation independent of compound or shifts in biophysics over time), a dedicated segment of the recording wells in each 384 plate were dedicated to having only vehicle exposure. These vehicle-only recordings were used to correct for any apparent “run-up” or “run-down” in the experiment.
The adjusted inhibition was calculated as follows: […]
Percent inhibition was determined and IC50 values were calculated using a 4 parameter logistic model within XLFit Software (IDBS, Boston MA):
[formula] where A and B are the maximal and minimum inhibition respectively, C is the IC50 concentration and D is the (Hill) slope.
The potency data was either taken from inactivated or resting state.

T1 sequence (Q9Y5Y9 whole entry): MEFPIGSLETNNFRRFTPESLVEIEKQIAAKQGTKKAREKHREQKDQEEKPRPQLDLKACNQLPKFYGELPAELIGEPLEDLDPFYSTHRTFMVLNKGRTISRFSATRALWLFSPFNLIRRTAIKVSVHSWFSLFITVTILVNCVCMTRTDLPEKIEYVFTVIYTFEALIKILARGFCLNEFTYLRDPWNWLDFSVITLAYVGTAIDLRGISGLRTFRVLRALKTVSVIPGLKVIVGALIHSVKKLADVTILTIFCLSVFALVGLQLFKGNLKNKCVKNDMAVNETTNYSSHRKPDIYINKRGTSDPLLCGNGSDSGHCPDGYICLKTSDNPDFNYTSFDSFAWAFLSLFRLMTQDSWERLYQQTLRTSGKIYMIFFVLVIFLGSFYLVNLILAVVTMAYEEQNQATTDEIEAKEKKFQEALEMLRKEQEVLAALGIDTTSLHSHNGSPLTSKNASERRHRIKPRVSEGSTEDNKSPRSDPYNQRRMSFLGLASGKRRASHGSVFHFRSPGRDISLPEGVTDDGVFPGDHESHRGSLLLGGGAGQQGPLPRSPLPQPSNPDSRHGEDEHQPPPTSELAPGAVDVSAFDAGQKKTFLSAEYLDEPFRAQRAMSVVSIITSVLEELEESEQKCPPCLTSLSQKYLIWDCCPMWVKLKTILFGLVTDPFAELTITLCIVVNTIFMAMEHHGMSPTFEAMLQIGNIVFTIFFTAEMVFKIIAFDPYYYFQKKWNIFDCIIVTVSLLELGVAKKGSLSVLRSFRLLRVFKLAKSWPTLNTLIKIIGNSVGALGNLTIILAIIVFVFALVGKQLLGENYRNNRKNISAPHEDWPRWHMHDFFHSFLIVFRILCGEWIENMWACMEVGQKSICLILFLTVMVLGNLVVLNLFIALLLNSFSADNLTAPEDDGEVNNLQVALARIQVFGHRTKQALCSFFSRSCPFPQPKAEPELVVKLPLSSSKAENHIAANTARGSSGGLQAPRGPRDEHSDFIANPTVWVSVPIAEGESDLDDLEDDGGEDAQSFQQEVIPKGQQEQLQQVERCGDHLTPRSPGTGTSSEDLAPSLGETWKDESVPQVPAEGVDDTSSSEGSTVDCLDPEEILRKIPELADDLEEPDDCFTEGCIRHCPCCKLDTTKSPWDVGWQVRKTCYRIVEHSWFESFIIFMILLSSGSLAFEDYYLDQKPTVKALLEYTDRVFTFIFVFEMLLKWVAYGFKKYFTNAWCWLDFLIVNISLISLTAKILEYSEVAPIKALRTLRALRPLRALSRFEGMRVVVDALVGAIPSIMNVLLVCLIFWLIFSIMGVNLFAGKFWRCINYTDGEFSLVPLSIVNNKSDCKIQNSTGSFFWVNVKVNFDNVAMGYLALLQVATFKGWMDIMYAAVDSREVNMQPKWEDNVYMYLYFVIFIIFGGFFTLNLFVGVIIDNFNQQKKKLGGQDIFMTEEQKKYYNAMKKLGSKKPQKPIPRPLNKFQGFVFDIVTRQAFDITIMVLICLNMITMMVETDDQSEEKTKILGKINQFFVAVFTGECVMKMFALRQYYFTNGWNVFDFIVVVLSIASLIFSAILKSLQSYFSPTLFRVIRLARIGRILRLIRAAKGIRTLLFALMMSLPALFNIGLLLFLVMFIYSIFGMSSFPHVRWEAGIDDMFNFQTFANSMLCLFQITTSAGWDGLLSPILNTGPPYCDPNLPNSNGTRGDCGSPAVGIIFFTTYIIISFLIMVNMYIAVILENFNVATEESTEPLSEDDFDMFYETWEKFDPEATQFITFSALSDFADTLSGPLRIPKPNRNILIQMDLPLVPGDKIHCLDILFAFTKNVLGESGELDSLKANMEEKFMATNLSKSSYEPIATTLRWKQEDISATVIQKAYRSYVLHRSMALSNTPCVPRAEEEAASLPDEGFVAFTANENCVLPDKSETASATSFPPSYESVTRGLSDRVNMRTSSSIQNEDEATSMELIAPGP
T1 sequence (Q9NY72 23-215 partner): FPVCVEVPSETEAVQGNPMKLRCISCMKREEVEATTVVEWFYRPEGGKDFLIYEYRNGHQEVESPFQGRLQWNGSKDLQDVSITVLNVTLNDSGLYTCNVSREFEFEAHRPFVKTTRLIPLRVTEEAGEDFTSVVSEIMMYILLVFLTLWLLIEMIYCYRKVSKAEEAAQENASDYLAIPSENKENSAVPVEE

pIC50	SMILES
5.00 to 6.00	Cc1ncc(NC(=O)c2c(C(F)(F)F)c(C)nn2CC2CCC(F)(F)CC2)cc1C(N)=O [SC-251, 5-(1-((4,4-difluorocyclohexyl)methyl)-3-methyl-4-(trifluoromethyl)-1H-pyrazole-5-carboxamido)-2-methylnicotinamide]
6.00 to 7.00	CS(=O)(=O)c1cccc(NC(=O)c2cc(C(F)(F)F)nn2CC2CCCCC2)c1 [SC-01, 1-(cyclohexylmethyl)-N-(3-(methylsulfonyl)phenyl)-3-(trifluoromethyl)-1H-pyrazole-5-carboxamide]
≥ 7.00	NC(=O)c1cc(NC(=O)c2c(C(F)(F)F)c(C3CC3)nn2C[C@@H]2CCO[C@H]2C(F)(F)F)ccn1 (racemic) [SC-147c]
5.00 to 6.00	Cc1nn(CC2CCOCC2)c(C(=O)Nc2cccc(S(N)(=O)=O)c2)c1C [SC-45, 3,4-dimethyl-N-(3-sulfamoylphenyl)-1-((tetrahydro-2H-pyran-4-yl)methyl)-1H-pyrazole-5-carboxamide]
6.00 to 7.00	NC(=O)c1cc(NC(=O)c2c(C(F)(F)F)c(C3CC3)nn2CC2CC2(F)F)ccn1 (single isomer, unassigned) [SC-279b]
5.00 to 6.00	CS(=O)(=O)c1cc(NC(=O)c2c(OC(F)F)c(C3CC3)nn2CC2CCOCC2)ccn1 [SC-322, 3-cyclopropyl-4-(difluoromethoxy)-N-(2-(methylsulfonyl)pyridin-4-yl)-1-((tetrahydro-2H-pyran-4-yl)methyl)-1H-pyrazole-5-carboxamide]
6.00 to 7.00	CS(=O)(=O)c1cccc(NC(=O)c2c(C3CC3)cnn2CC2CCCCC2)c1 [SC-19, 2-(cyclohexylmethyl)-4-cyclopropyl-N-(3-methylsulfonylphenyl)pyrazole-3-carboxamide]
≥ 7.00	CS(=O)(=O)c1cc(NC(=O)c2c(C(F)(F)F)c(C3CC3)nn2CC2CCCCO2)ccn1 (single isomer, unassigned) [SC-259b]
6.00 to 7.00	CS(=O)(=O)c1cccc(NC(=O)c2c(C(F)(F)F)cnn2CC2CCC(F)(F)CC2)c1 [SC-05, 2-[(4,4-difluorocyclohexyl)methyl]-N-(3-methylsulfonylphenyl)-4-(trifluoromethyl)pyrazole-3-carboxamide]
5.00 to 6.00	Cc1nn(C[C@@H]2CCC(F)(F)C2)c(C(=O)Nc2cncc(C(N)=O)c2)c1C(F)(F)F [SC-247R]
≥ 7.00	Cc1c(C(C)(F)F)nn(C[C@H]2C[C@@H]2C(F)(F)F)c1C(=O)Nc1ccnc(C(N)=O)c1 (single isomer, unassigned) [SC-204b]
6.00 to 7.00	CS(=O)(=O)c1cccc(NC(=O)c2c(C(F)(F)F)cnn2CC2(F)CCCCC2)c1 [SC-233, 1-((1-fluorocyclohexyl)methyl)-N-(3-(methylsulfonyl)phenyl)-4-(trifluoromethyl)-1H-pyrazole-5-carboxamide]
≥ 7.00	NC(=O)c1cc(NC(=O)c2c(C(F)(F)F)c(C(F)F)nn2CC2CCC(F)(F)C2)ccn1 (stereo not drawn) [SC-325, 4-(1-((3,3-difluorocyclopentyl)methyl)-3-(difluoromethyl)-4-(trifluoromethyl)-1H-pyrazole-5-carboxamido)picolinamide]
5.00 to 6.00	Cc1c(C(C)(F)F)nn(CC2(C)CCO2)c1C(=O)Nc1ccnc(S(N)(=O)=O)c1 (stereo not drawn) [SC-317, 3-(1,1-difluoroethyl)-4-methyl-1-((2-methyloxetan-2-yl)methyl)-N-(2-sulfamoylpyridin-4-yl)-lH-pyrazole-5-carboxamide]
5.00 to 6.00	Cc1cnn(CC2CCCCC2)c1C(=O)Nc1cccc(S(C)(=O)=O)c1 [SC-37, 2-(cyclohexylmethyl)-4-methyl-N-(3-methylsulfonylphenyl)pyrazole-3-carboxamide]
≥ 7.00	CC(F)(F)c1nn(CC2CC(F)(F)C2)c(C(=O)Nc2ccnc(C(N)=O)c2)c1C(F)(F)F [SC-180, 4-(1-((3,3-difluorocyclobutyl)methyl)-3-(1,1-difluoroethyl)-4-(trifluoromethyl)-1H-pyrazole-5-carboxamido)picolinamide]
≥ 7.00	CS(=O)(=O)c1cc(NC(=O)c2c(C(F)(F)F)c(C3CC3)nn2CC2CCC(F)(F)C2)ccn1 (single isomer, unassigned) [SC-277a]
6.00 to 7.00	CC(C1CCCCC1)n1ncc(C(F)(F)F)c1C(=O)Nc1cccc(S(C)(=O)=O)c1 (stereo not drawn) [SC-29, 2-(1-cyclohexylethyl)-N-(3-methylsulfonylphenyl)-4-(trifluoromethyl)pyrazole-3-carboxamide]
≥ 7.00	Cc1nn(CC2CCCCC2)c(C(=O)Nc2cccc(S(N)(=O)=O)c2)c1C(F)(F)F [SC-244, 1-(cyclohexyimethyl)-3-methyl-N-(3-sulfamoylphenyl)-4-(trifluoromethyl)-1H-pyrazole-5-carboxamide]
≥ 7.00	NS(=O)(=O)c1cc(NC(=O)c2c(C(F)(F)F)c(C3CC3)nn2CC2CCC(F)(F)CC2)ccn1 [SC-246, 3-cyclopropyl-1-((4,4-difluorocyclohexyl)methyl)-N-(2-sulfamoylpyridin-4-yl)-4-(trifluoromethyl)-1H-pyrazole-5-carboxamide]
≥ 7.00	CS(=O)(=O)c1cc(NC(=O)c2c(C(F)(F)F)c(C3CC3)nn2C[C@@H]2CCO[C@@H]2C(F)(F)F)ccn1 (single isomer, unassigned) [SC-150b]
≥ 7.00	NC(=O)c1cc(NC(=O)c2c(C(F)(F)F)c(C3CC3)nn2CC2CCCOC2)ccn1 (single isomer, unassigned) [SC-145b, 4-(3-Cyclopropyl-1-((tetrahydro-2H-pyran-3-yl)methyl)-4-(trifluoromethyl)-1H-pyrazole-5-carboxamido)picolinamide]
5.00 to 6.00	CS(=O)(=O)c1cccc(NC(=O)c2ccnn2CC2CCCCC2)c1 [SC-226, 1-(cyclohexylmethyl)-N-(3-(methyIsulfonyl)phenyl)-1H-pyrazole-5-carboxamide]
6.00 to 7.00	COC1CC(Cn2nc(C3CC3)c(C(F)(F)F)c2C(=O)Nc2ccnc(C(N)=O)c2)C1 (single isomer, unassigned) [SC-281b]
≥ 7.00	NC(=O)c1cc(NC(=O)c2c(C(F)F)c(C3CC3)nn2CC2CCC(F)(F)C2)ccn1 (stereo not drawn) [SC-216, 4-(3-cyclopropyl-1-((3,3-difluorocyclopentyl)methyl)-4-(difluoromethyl)-1H-pyrazole-5-carboxamido)picolinamide]
≥ 7.00	CS(=O)(=O)c1cc(NC(=O)c2c(C(F)(F)F)c(OC(F)F)nn2CC2CCC(F)(F)C2)ccn1 (racemic) [SC-293, 1-((3,3-difluorocyclopentyl)methyl)-3-(difluoromethoxy)-N-(2-(methylsulfonyl)pyridin-4-yl)-4-(trifluoromethyl)-1H-pyrazole-5-carboxamide]
≥ 7.00	COCCOC[C@@H]1CCCC[C@@H]1Cn1nc(C(C)(F)F)c(C)c1C(=O)Nc1ccnc(C(N)=O)c1 (relative stereo) [SC-223, 4-(3-(1,1-difluoroethyl)-1-((2-((2-methoxyethoxy)methyl)cyclohexyl)methyl)-4-methyl-1H-pyrazole-5-ca±oxamido)picolinamide]
6.00 to 7.00	NC(=O)c1cccc(NC(=O)c2c(C(F)(F)F)cnn2CC2CCC(F)(F)CC2)c1 [SC-41, N-(3-carbamoylphenyl)-2-[(4,4-difluorocyclohexyl)methyl]-4-(trifluoromethyl)pyrazole-3-carboxamide]
6.00 to 7.00	CS(=O)(=O)n1cc(NC(=O)c2c(C(F)(F)F)cnn2CC2CCCCC2)cn1 [SC-36, 2-(cyclohexylmethyl)-N-(1-methylsulfonylpyrazol-4-yl)-4-(trifluoromethyl)pyrazole-3-carboxamide]
≥ 7.00	Cc1c(C(C)(F)F)nn(CC2(C)CCC(F)(F)C2)c1C(=O)Nc1ccnc(C(N)=O)c1 (single isomer, unassigned) [SC-214b]
